Laboratory results taken from US10472364B2 (Calithera Biosciences, Inc., priority 2016, dated 2019).

The compounds below were run against endogenous, cell-bound CD73 on SK-MEL-28 cells (Homo sapiens (Human), UniProt P21589) (assay: Inhibition of endogenous, cell-bound CD73 enzyme activity in SK-MEL-28 cells (Malachite Green)). Settings: 100 μM AMP, 30 minutes at room temperature.
Type: cell-based
Method: The day before the experiment, 5000 cells were plated per well in a 96-well plate. Cells were washed twice with […] reaction buffer (20 mM HEPES, pH 7.4, 125 mM NaCl, 1 mM KCl, 2 mM MgCl2, 10 mM glucose) to remove residual inorganic phosphate. After washing, assays contained serial dilutions of test compounds and 100 μM of AMP in a total volume of 200 μL reaction buffer, with a final DMSO concentration≤0.5%. After 30 minutes at room temperature, supernatant was removed from the cells. […] The concentration of inorganic phosphate was determined using a phosphate standard curve to determine IC50.

Sequence of endogenous, cell-bound CD73 on SK-MEL-28 cells (P21589 27-574): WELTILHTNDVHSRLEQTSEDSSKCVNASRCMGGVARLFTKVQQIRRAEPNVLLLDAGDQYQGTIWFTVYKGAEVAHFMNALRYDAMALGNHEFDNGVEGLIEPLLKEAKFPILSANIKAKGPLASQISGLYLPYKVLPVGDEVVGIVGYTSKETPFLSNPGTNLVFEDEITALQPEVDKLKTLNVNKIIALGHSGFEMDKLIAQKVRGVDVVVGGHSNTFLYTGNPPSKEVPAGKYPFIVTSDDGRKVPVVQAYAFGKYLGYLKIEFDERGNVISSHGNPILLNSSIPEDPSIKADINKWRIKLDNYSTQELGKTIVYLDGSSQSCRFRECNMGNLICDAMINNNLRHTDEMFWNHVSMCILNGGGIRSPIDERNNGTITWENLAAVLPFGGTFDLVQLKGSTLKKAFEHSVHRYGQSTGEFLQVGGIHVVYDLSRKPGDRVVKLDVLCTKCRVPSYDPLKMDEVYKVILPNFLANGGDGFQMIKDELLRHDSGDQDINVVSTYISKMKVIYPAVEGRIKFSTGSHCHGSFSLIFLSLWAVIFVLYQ

First: Cn1nc(CC(OC[C@H]2O[C@@H](n3cnc4c(N)nc(Cl)nc43)[C@@H](F)[C@@H]2O)(C(=O)O)C(=O)O)cc1C(=O)O [compound 73, 2-(((2R,3R,4S,5R)-5-(6-amino-2-chloro-9H-purin-9-yl)-4-fluoro-3-hydroxytetrahydrofuran-2-yl)methoxy)-2-((5-carboxy-1-methyl-1H-pyrazol-3-yl)methyl)malonic acid]
Second: Nc1nc(Cl)nc2c1ncn2[C@@H]1O[C@H](COC(Cc2ccc(C(=O)O)cc2)(C(=O)O)C(=O)O)[C@@H](O)[C@@H]1F [compound 7, 2-(((2R,3R,4S,5R)-5-(6-amino-2-chloro-9H-purin-9-yl)-4-fluoro-3-hydroxytetrahydro-furan-2-yl)methoxy)-2-(4-carboxybenzyl)-malonic acid]
The IC50 of the first is 4.8-fold higher: 1240 nM for the first, 257 nM for the second. The second is the more potent here.

Compared with Nc1nc(Cl)nc2c1ncn2[C@@H]1O[C@H](COC(Cc2ccccc2)(C(=O)O)C(=O)O)[C@@H](O)[C@@H]1F [compound 6, 2-(((2R,3R,4S,5R)-5-(6-amino-2-chloro-9H-purin-9-yl)-4-fluoro-3-hydroxytetrahydro-furan-2-yl)methoxy)-2-benzylmalonic acid], Nc1nc(Cl)nc2c1ncn2[C@@H]1O[C@H](COC(Cc2cccc(O)c2)(C(=O)O)C(=O)O)[C@@H](O)[C@@H]1F [compound 56, 2-(((2R,3R,4S,5R)-5-(6-amino-2-chloro-9H-purin-9-yl)-4-fluoro-3-hydroxytetrahydrofuran-2-yl)methoxy)-2-(3-hydroxybenzyl)malonic acid] is 2.6-fold higher in IC50: 489 nM for the first, 1250 nM for the second.

Compared with CCOC(=O)C(Cc1ccc(OC(F)(F)F)cc1)(OC[C@H]1O[C@@H](n2cnc3c(N)nc(Cl)nc32)[C@@H](F)[C@@H]1O)C(=O)O (single isomer, unassigned) [compound 38], COc1cccc(CC(OC[C@H]2O[C@@H](n3cnc4c(N)nc(Cl)nc43)[C@@H](F)[C@@H]2O)(C(=O)O)C(=O)O)c1 [compound 49] is 1.6-fold higher in IC50: 1480 nM for the first, 2380 nM for the second.

First: CN(C)C(=O)c1cccc(CC(OC[C@H]2O[C@@H](n3cnc4c(N)nc(Cl)nc43)[C@@H](F)[C@@H]2O)(C(=O)O)C(=O)O)c1 [compound 22]
Second: Nc1nc(Cl)nc2c1ncn2[C@@H]1O[C@H](COC(Cc2cccc(-c3nnn[nH]3)c2)(C(=O)O)C(=O)O)[C@@H](O)[C@@H]1F [compound 53, 2-(3-(1H-tetrazol-5-yl)benzyl)-2-(((2R,3R,4S,5R)-5-(6-amino-2-chloro-9H-purin-9-yl)-4-fluoro-3-hydroxytetrahydrofuran-2-yl)methoxy)malonic acid]
The IC50 of the first is 2.3-fold lower: 1140 nM for the first, 2600 nM for the second. The first is the more potent here.

First: Nc1nc(Cl)nc2c1ncn2[C@@H]1O[C@H](COC(Cc2cc(-c3ccccc3)no2)(C(=O)O)C(=O)O)[C@@H](O)[C@@H]1F [compound 61, 2-(((2R,3R,4S,5R)-5-(6-amino-2-chloro-9H-purin-9-yl)-4-fluoro-3-hydroxytetrahydrofuran-2-yl)methoxy)-2-((3-phenylisoxazol-5-yl)methyl)malonic acid]
Second: Nc1nc(Cl)nc2c1ncn2[C@@H]1O[C@H](COC(Cc2ccc(Cl)nc2)(C(=O)O)C(=O)O)[C@@H](O)[C@@H]1F [compound 8, 2-(((2R,3R,4S,5R)-5-(6-amino-2-chloro-9H-purin-9-yl)-4-fluoro-3-hydroxytetrahydro-furan-2-yl)methoxy)-2-((6-chloropyridin-3-yl)methyl)malonic acid]
The IC50 of the first is 9-fold higher: 6970 nM for the first, 772 nM for the second.

In the case of N#CCC(OC[C@H]1O[C@@H](n2cnc3c(N)nc(Cl)nc32)[C@@H](F)[C@@H]1O)(C(=O)O)C(=O)O [compound 33, 2-(((2R,3R,4S,5R)-5-(6-amino-2-chloro-9H-purin-9-yl)-4-fluoro-3-hydroxytetrahydrofuran-2-yl)methoxy)-2-(cyanomethyl)malonic acid], the IC50 is reported as 3380 nM.

Each compound was assayed against recombinant CD73 (Homo sapiens (Human), UniProt P21589) (assay: Inhibition of the CD73 enzyme in vitro (soluble recombinant CD73, Malachite Green)). Settings: recombinant CD73 0.5 nM, AMP 50 μM, 30 minutes at room temperature.
Sequence of recombinant CD73 (P21589 27-547): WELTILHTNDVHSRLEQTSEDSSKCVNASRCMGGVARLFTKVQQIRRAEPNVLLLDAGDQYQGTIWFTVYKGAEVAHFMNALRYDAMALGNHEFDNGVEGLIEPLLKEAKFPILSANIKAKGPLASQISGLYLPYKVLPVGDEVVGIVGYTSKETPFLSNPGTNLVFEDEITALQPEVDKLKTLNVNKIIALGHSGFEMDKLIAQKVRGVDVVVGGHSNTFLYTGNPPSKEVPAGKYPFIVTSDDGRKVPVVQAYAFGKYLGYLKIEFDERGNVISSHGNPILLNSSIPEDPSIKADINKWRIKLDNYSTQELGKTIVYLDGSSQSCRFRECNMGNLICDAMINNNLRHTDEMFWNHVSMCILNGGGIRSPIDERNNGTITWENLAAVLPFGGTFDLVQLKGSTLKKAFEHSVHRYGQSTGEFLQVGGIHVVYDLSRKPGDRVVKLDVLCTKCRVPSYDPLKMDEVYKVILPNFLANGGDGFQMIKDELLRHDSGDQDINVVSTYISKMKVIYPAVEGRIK
Type: biochemical
Method: The concentration of inorganic phosphate was determined using a phosphate standard curve.

First: COC(=O)c1ccc(CC(OC[C@H]2O[C@@H](n3cnc4c(N)nc(Cl)nc43)[C@@H](F)[C@@H]2O)(C(=O)O)C(=O)O)cc1 [compound 91, 2-(((2R,3R,4S,5R)-5-(6-amino-2-chloro-9H-purin-9-yl)-4-fluoro-3-hydroxytetrahydrofuran-2-yl)methoxy)-2-(4-(methoxycarbonyl)benzyl)malonic acid]
Second: Nc1nc(Cl)nc2c1ncn2[C@@H]1O[C@H](COC(Cc2ccc(C(=O)O)cc2)(C(=O)O)C(=O)O)[C@@H](O)[C@@H]1F [compound 7, 2-(((2R,3R,4S,5R)-5-(6-amino-2-chloro-9H-purin-9-yl)-4-fluoro-3-hydroxytetrahydro-furan-2-yl)methoxy)-2-(4-carboxybenzyl)-malonic acid]
The IC50 of the first is 2.7-fold higher: 322 nM for the first, 121 nM for the second. The second is the more potent here.

Compared with Cn1nc(CC(OC[C@H]2O[C@@H](n3cnc4c(N)nc(Cl)nc43)[C@@H](F)[C@@H]2O)(C(=O)O)C(=O)O)cc1C(=O)O [compound 73, 2-(((2R,3R,4S,5R)-5-(6-amino-2-chloro-9H-purin-9-yl)-4-fluoro-3-hydroxytetrahydrofuran-2-yl)methoxy)-2-((5-carboxy-1-methyl-1H-pyrazol-3-yl)methyl)malonic acid], Cc1cn([C@H]2C[C@H](O)[C@@H](COC(C(=O)O)C(=O)O)O2)c(=O)[nH]c1=O [compound 14, 2-(((2R,3S,5R)-3-hydroxy-5-(5-methyl-2,4-dioxo-3,4-dihydropyrimidin-1(2H)-yl)tetrahydrofuran-2-yl)methoxy)malonic acid] is higher in IC50: 8610 nM for the first, greater than 50000 nM for the second.
